Counter-ions that a name gives are not always drawn. Like-named read-outs stand apart in the source and are kept apart here.
What was measured:
GWI rats [1] = conditions: for pattern separation ability (exploration of novel vs familiar object on P2): GWI rats
Description: The animals were then treated 5 times a week with 5-amino-2,3-dihydro-1,4-phthalazinedione or VEH for 8 weeks. […] The animals are then subjected to cognitive and mood function tests starting from the fifth week of treatment.
(§1) Administration of 5-amino-2,3-dihydro-1,4-phthalazinedione or VEH: Treatment was given for 8 weeks (5 times/week) via oral gavage, commencing in the 5th month after exposure to GMIR chemicals and stress. The doses of 5-amino-2,3-dihydro-1,4-phthalazinedione employed were 40 mg/kg, 80 mg/kg and 160 mg/kg.
(§2) Behavioral tests for assessing cognitive and mood function: We examined animals in all groups through stress-free behavioral tests. We used a Pattern Separation Test (PST) to assess cognitive function and a Sucrose Preference Test (SPT) to assess mood function.
In this test, each rat successively explored two different sets of identical objects (object types 1 and 2) placed on distinct types of floor patterns (Patterns 1 and 2 [P1 and P2]) for 5 minutes each in the two acquisition trials (separated by 30 minutes). Thirty minutes later, in the testing phase (Trial-3), each rat explored an object from trial 2 (which is now a familiar object) and an object from Trial-1 (which is now a novel object) placed on the floor pattern employed in trial 2 (P2).
FIGS. 1B-1F compare percentages of object exploration time spent with the familiar object on pattern 2 (Fa on P2) and the novel object on pattern 2 (NO of P2) in different animal groups (n=11-14/group).

GWI rats [2] = tested on: GWI rats
Description: Time-line of various procedures for animals in cohorts 1 and 2: Animals were exposed daily to GWIR-chemicals and stress for 28 days, and were subjected to a survival period of 4 months between exposure and treatment. The animals were then treated 5 times a week with 5-amino-2,3-dihydro-1,4-phthalazinedione or VEH for 8 weeks. […] The animals are then subjected to cognitive and mood function tests starting from the fifth week of treatment. Finally, euthanasia and tissue harvesting was performed after 8 weeks of treatment.
(§3) Exposure of animals to GWIR-chemicals and stress: Animals were exposed daily to the following chemicals for 28 days: pyridostigmine bromide (PB) at 2 mg/kg/day (via oral gavage), DEET at 60 mg/kg/day (via dermal application) and permethrin at 0.2 mg/kg/day (via dermal application). In addition, animals were subjected daily to 15 minutes of restraint stress using rat restrainers during the above 28-day period.
(§4) Survival period between exposure and treatment: Following the exposure to GMIR chemicals and stress, animals were maintained in the vivarium for four months in regular cages (two per cage) with ad libitum access to food and water. Administration of 5-amino-2,3-dihydro-1,4-phthalazinedione or VEH: Treatment was given for 8 weeks (5 times/week) via oral gavage, commencing in the 5th month after exposure to GMIR chemicals and stress. The doses of 5-amino-2,3-dihydro-1,4-phthalazinedione employed were 40 mg/kg, 80 mg/kg and 160 mg/kg.
as §2
This test comprised four days of monitoring. On day 1, rats were housed individually and given free access to two identical bottles containing 1% sucrose solution. Rats were trained to adapt to sucrose solution for 24 hours. On day 2, one bottle was replaced with a new bottle containing regular water for 24 hours. On day 3, rats were deprived of water and food for 23 hours, and then on day 4, rats were given free access to two bottles: one containing 100 ml of sucrose solution and another containing 100 ml of regular vyater. An hour later, the consumed volume in both bottles was recorded.

[3] = tested on: oxidative stress response and antioxidant genes in the hippocampus of GWI rats
Description: The animals were then treated 5 times a week with 5-amino-2,3-dihydro-1,4-phthalazinedione or VEH for 8 weeks. […] Finally, euthanasia and tissue harvesting was performed after 8 weeks of treatment.
as §1
Analyses of oxidative stress: The hippocampal tissues obtained from animals belonging to cohort 1 were used for the following measurements. First, we analyzed the oxidative stress response and the expression of antioxidant genes using the Rat Oxidative Stress Response PCR Array from Qiagen. We analyzed the expression of 84 key genes involved in oxidative stress response and antioxidant activity in the hippocampus of animals belonging to different groups using quantitative real time PCR (qRT-PCR) to ascertain the effects of 5-amino-2,3-dihydro-1,4-phthalazinedione treatment on oxidative stress.
(i) Expression of oxidative stress response and antioxidant genes: We analyzed the expression of 84 key genes involved in oxidative stress response and antioxidant activity in the hippocampus of animals belonging to different groups using quantitative real time PCR (qRTPCR).

GWI rats [4] = conditions: hippocampal tissue extracts
Description: (§5) Time-line of various procedures for animals in cohorts 1 and 2: Animals were exposed daily to GWIR-chemicals and stress for 28 days, and were subjected to a survival period of 4 months between exposure and treatment. The animals were then treated 5 times a week with 5-amino-2,3-dihydro-1,4-phthalazinedione or VEH for 8 weeks. […] Finally, euthanasia and tissue harvesting was performed after 8 weeks of treatment.
as §3
Survival period between exposure and treatment: Following the exposure to GMIR chemicals and stress, animals were maintained in the vivarium for four months in regular cages (two per cage) with ad libitum access to food and water. […]
Analyses of oxidative stress: The hippocampal tissues obtained from animals belonging to cohort 1 were used for the following measurements. […] Second, we measured lipid peroxidation through quantification of malondialdehyde. […]

[5] = tested on: inflammatory cytokines in hippocampal tissues of GWI rats; conditions: hippocampal tissue;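 note: relative cytokine levels by 16-cytokine plate array in hippocampus of rats given 28 days of GWI-related chemicals plus restraint stress, treated after a 4-month interval, tissue harvested after 8 weeks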
Description: as §5, §3, §4
Analyses of inflammation: The hippocampal tissues obtained from animals belonging to cohort 1 were also used to measure the relative levels of inflammatory cytokines in different groups of animals. We employed the Rat Cytokine Plate Array from Signosis, which facilitated analyses of 16 rat cytokines in a high-throughput manner. The cytokines included: tumor necrosis factor-alpha (TNF-α), interleukin=1 alpha (IL-1α), interleukin-1 beta (IL-1β), vascular endothelial growth factor (VEGF), fibroblast growth factor beta (FGFβ), interferon gamma (IFNγ), interleukin=5 (IL-5), interleukin=6 (IL-6), interleukin=15 (IL-15), leptin, monocyte chemoattractant protein=1 (MCP-1), IFN-gamma-inducible protein 10 (IP-10 or CXCL10), stem cell factor (SCF), Regulated on Activation, Normal T Cell Expressed and Secreted (Rantes), Macrophage inflammatory protein 1 alpha (MIP-1α) and transforming growth factor-beta (TGFβ).
Analyses of inflammation: The hippocampal tissues obtained from animals were used for measurement of the relative levels of inflammatory cytokines in different groups of animals. We employed “The Rat Cytokine Plate Array” from Signosis, which facilitated analyses of 16 rat cytokines in a high-throughput manner. The cytokines included: TNF-α, IL-1α, IL-1β, VEGF, FGFβ, , IFNγ, IL-5, IL-6, IL-15, leptin, MCP-1, IP-10 (or CXCL10), SCF, Rantes, MIP-1α and TGFβ.

[6] = GWI + MSL 40 mg/Kg, oral gavage 5 times/week for 8 weeks
[7] = column headed GWI + MSL 160 mg/Kg, oral gavage 5 times/week for 8 weeks
[8] = last treatment column, head prints no dose, oral gavage 5 times/week for 8 weeks

For `Nc1cccc2c(=O)[nH][nH]c(=O)c12` [MSL, 5-amino-2,3-dihydro-1,4-phthalazinedione, monosodium salt], the “pattern separation ability (exploration of novel vs familiar object on P2)” value (GWI rats [1]; 40 mg/kg oral gavage) was “remained impaired”, the “pattern separation ability (exploration of novel vs familiar object on P2)” value (GWI rats [1]; 80 mg/kg oral gavage) was “remained impaired” and the “pattern separation ability (exploration of novel vs familiar object on P2)” value (GWI rats [1]; 160 mg/kg oral gavage) was “displayed an ability for pattern separation”. For the same compound, the “total object exploration time between groups in Trial-3” value (GWI rats [1]; GWI rats, 40, 80 and 160 mg/Kg groups vs naive and VEH, one-way ANOVA) was “did not show ditierences between groups”, the “preference for sucrose-containing water over regular water” value (“preference … over regular water” for short) (GWI rats [2]; 40 mg/kg oral gavage) was “remained impaired” and the “preference … over regular water” value (GWI rats [2]; 80 mg/kg oral gavage) was “exhibited a clear preference for drinking sucrose-containing water over regular water”. For the same compound, the “preference … over regular water” value (GWI rats [2]; 160 mg/kg oral gavage) was “exhibited a clear preference for drinking sucrose-containing water over regular water”, the “total volume (normal water+sucrose-containing water) consumed” value (GWI rats [2]; all dose groups vs naive and VEH, one-way ANOVA) was “did not show differences between groups” and the “expression of 20 oxidative stress genes increased in GWI rats” value ([3]; 80 mg/kg) was “normalized to control levels”. The “expression of 20 oxidative stress genes increased in GWI rats” value ([3]; 160 mg/kg) was “normalized to control levels”, the “expression of 4 oxidative stress response genes (Prdx6, Sod2, Sqstm1, Srxn1)” value ([3]; vs GWI rats receiving VEH) was “completely normalized” and the MDA concentration (GWI rats [4]; 40 mg/kg, p<0.05) was “higher concentration of MDA than naive control rats”. The MDA concentration (GWI rats [4]; 160 mg/kg) was “reduced MDA concentration than GWI rats receiving VEH”, the “FGF-beta Mean ± S.E.M.” value [5, 6] was 0.17 ± 0.05 and the “IFN-gamma Mean ± S.E.M.” value [5, 6] was 0.19 ± 0.05. For the same compound, the “IL-1alpha Mean ± S.E.M.” value [5, 6] was 0.17 ± 0.05, the “IL-1 beta Mean ± S.E.M.” value [5, 6] was 0.38 ± 0.05 and the “IL-5 Mean ± S.E.M.” value [5, 6] was 0.19 ± 0.05. The “IL-6 Mean ± S.E.M.” value [5, 6] was 0.23 ± 0.05, the “IL-10 Mean ± S.E.M.” value [5, 6] was 0.085 ± 0.02 and the “IL-15 Mean ± S.E.M.” value [5, 6] was 0.13 ± 0.05. For the same compound, the “LEPTIN Mean ± S.E.M.” value [5, 6] was 0.40 ± 0.05, the “MCP-1 Mean ± S.E.M.” value [5, 6] was 0.09 ± 0.05 and the “MIP-1 alpha Mean ± S.E.M.” value [5, 6] was 0.06 ± 0.05. The “Rantes (CCL5) Mean ± S.E.M.” value [5, 6] was 0.15 ± 0.05, the “SCF Mean ± S.E.M.” value [5, 6] was 0.32 ± 0.05 and the “TNF-alpha Mean ± S.E.M.” value [5, 6] was 0.15 ± 0.02. For the same compound, the “VEGF Mean ± S.E.M.” value [5, 6] was 0.19 ± 0.05, the FGF-beta [5, 7] was 0.21 ± 0.03 and the IFN-gamma [5, 7] was 0.23 ± 0.03. For the same compound, the IL-1alpha [5, 7] was 0.21 ± 0.03, the IL-1 beta [5, 7] was 0.42 ± 0.06 and the IL-5 [5, 7] was 0.22 ± 0.03. For the same compound, the IL-6 [5, 7] was 0.28 ± 0.02, the IL-10 [5, 7] was 0.103 ± 0.02 and the IL-15 [5, 7] was 0.14 ± 0.02. For the same compound, the LEPTIN [5, 7] was 0.50 ± 0.09, the MCP-1 [5, 7] was 0.13 ± 0.02 and the MIP-1 alpha [5, 7] was 0.07 ± 0.01. The “Rantes (CCL5)” value [5, 7] was 0.17 ± 0.03, the SCF [5, 7] was 0.36 ± 0.06 and the TNF-alpha [5, 7] was 0.19 ± 0.03. The VEGF [5, 7] was 0.22 ± 0.03, the “concentration of MIP-1α” value ([5]; GWI rats, decreases not significant statistically) was “reduced the concentration of MIP-1α” and the “concentration of 16 cytokines between groups” value ([5]; naive, GWI + VEH and GWI rats receiving different doses) was “no significant differences”. The “FGF-beta Mean ± S.E.M.” value [5, 8] was 0.18 ± 0.03, the “IFN-gamma Mean ± S.E.M.” value [5, 8] was 0.28 ± 0.03 and the “IL-1alpha Mean ± S.E.M.” value [5, 8] was 0.17 ± 0.01. The “IL-1 beta Mean ± S.E.M.” value [5, 8] was 0.39 ± 0.06, the “IL-5 Mean ± S.E.M.” value [5, 8] was 0.19 ± 0.04 and the “IL-6 Mean ± S.E.M.” value [5, 8] was 0.24 ± 0.03. For the same compound, the “IL-10 Mean ± S.E.M.” value [5, 8] was 0.086 ± 0.01, the “IL-15 Mean ± S.E.M.” value [5, 8] was 0.11 ± 0.02 and the “LEPTIN Mean ± S.E.M.” value [5, 8] was 0.43 ± 0.11. For the same compound, the “MCP-1 Mean ± S.E.M.” value [5, 8] was 0.10 ± 0.02, the “MIP-1 alpha Mean ± S.E.M.” value [5, 8] was 0.08 ± 0.02 and the “Rantes (CCL5) Mean ± S.E.M.” value [5, 8] was 0.18 ± 0.02. The “SCF Mean ± S.E.M.” value [5, 8] was 0.32 ± 0.07, the “TNF-alpha Mean ± S.E.M.” value [5, 8] was 0.18 ± 0.02 and the “VEGF Mean ± S.E.M.” value [5, 8] was 0.21 ± 0.03.

Source: patent publication US20210161890A1, “COMPOSITIONS AND METHODS FOR TREATING BRAIN DYSFUNCTION” (BACH PHARMA, INC., priority 2015, published 2021)
